# US20260297121A1, “MITHRAMYCIN (MTM) 2’ OXIMES” (University of Kentucky Research Foundation, priority 2023, published 2026)
# Like-named read-outs stand apart in the source and are kept apart here.
# How the values were obtained:
# TC32 cells = assay: Potency IC50 in TC32 cells and selectivity; assay type: cell-based; settings: Homo sapiens
# Method: (§1) Exemplary compounds of the presently-disclosed subject matter were assessed for activity, including clearance, potency, and selectivity. Results from studies are compiled in Tables 2-4.
# (§2) Desirable clearance was identified at lower values of mL hr^−1kg^−1 (e.g., about ≤10 mL hr^−1 kg^−1), desirable potency was identified at lower values of IC50 (e.g., about ≤10 nM in TC32 cells), and desired selectivity was identified at higher ratios of IC50 in PC3/IC50 in TC32 (e.g. about >10).
# log P = assay type: physicochemical
# PC3 [1] = assay: IC50 in PC3 cells; assay type: cell-based; settings: head prints PC2, text PC3
# Method: as §1, §2
# [2] = Clearance (CL) / pharmacokinetics; assay type: in vivo, mice; settings: for clearance: mouse, plasma, iv
# Method: as §1, §2
# Pharmacokinetics of exemplary compounds of the presently-disclosed subject matter were studied in mice following bolus IV dosing. Groups of three mice were administered the compound(s) and blood samples were collected via saphenous bleed. Plasma was separated by centrifugation and extracted to quantitate analytes by LC/MS/MS. Sample analysis followed upon the system meeting system suitability criteria customary for fit for purpose analytical methods. FIG. 1A includes data comparing YL-C09 to mithramycin (MTM) dosed separately. FIG. 1B includes data for YL-B171, YL-C110 and MTM dosed in cassette format.
# TC32 = assay: Cytotoxicity, resazurin fluorescence, TC32; assay type: cell-based; settings: Homo sapiens, TC-32, 72 h, read-out: GI50 TC32, Table 5
# Method: (§3) Exemplary compounds of the presently-disclosed subject matter were assessed for cytotoxicity (Table 5) in Ewing sarcoma (TC32) and non-Ewing (PC3 prostate cancer). […] Cells (1000-5000/well) were seeded in 96-well plates and allowed to attach and grow for 24 hr prior to adding compounds in half-log increments from 0.3 nM-10 μM. Cell viability was assessed after 72 hr continuous incubation with compounds using resazurin fluorescence. GI50 values were estimated using GraphPad Prism.
# PC3 [3] = assay: Cytotoxicity, resazurin fluorescence, PC3; assay type: cell-based; settings: for GI50: Homo sapiens, PC-3, 72 h, read-out: GI50 PC3, Table 5; for GI50 PC3: Table 5, 72 hr
# Method: as §3
# [4] = TC-32, Table 2, read-out: IC50 TC32
# [5] = TC-32, Table 4, read-out: IC50 TC32
# [6] = Homo sapiens, PC-3, read-out: IC50 PC2, Table 2
# [7] = Homo sapiens, PC-3, read-out: IC50 PC2, Table 4
# [8] = TC-32, Table 3, read-out: IC50 TC32
# [9] = Homo sapiens, PC-3, read-out: IC50 PC2, Table 3
Structure (SMILES),IC50 (TC32 cells; [4]) [nM],logP (log P; Table 2),IC50 (PC3 [1]; [6]) [nM],CL ([2]; Table 4) [mL/min/kg],PK Improvement ([2]; Table 4),clearance ([2]; Table 2) [mL/min/kg],GI50 (TC32) [nM],GI50 (PC3 [3]) [nM],CL ([2]; Table 3) [mL/min/kg],also measured
CO[C@H](C(=NOCCNC(=O)c1cc2cc(Cl)ccc2[nH]1)[C@@H](O)[C@@H](C)O)[C@@H]1Cc2cc3cc(O[C@H]4C[C@@H](O[C@H]5C[C@@H](O)[C@H](O)[C@@H](C)O5)[C@H](O)[C@@H](C)O4)c(C)c(O)c3c(O)c2C(=O)[C@H]1O[C@H]1C[C@@H](O[C@H]2C[C@@H](O[C@H]3C[C@](C)(O)[C@H](O)[C@@H](C)O3)[C@@H](O)[C@@H](C)O2)[C@H](O)[C@@H](C)O1 [YL-B152],8.34,2.19,17.6,0.733,35.9,0.733,,,,IC50 (TC32 cells; [5]): 8.3 nM; logP (log P; Table 4): 2.2; IC50 (PC3 [1]; [7]): 17.6 nM
COC(C(=NOCCNC(=O)c1[nH]c2ccc(Cl)cc2c1-c1ccccc1)C(O)C(C)O)C1Cc2cc3cc(OC4CC(OC5CC(O)C(O)C(C)O5)C(O)C(C)O4)c(C)c(O)c3c(O)c2C(=O)C1OC1CC(OC2CC(OC3CC(C)(O)C(O)C(C)O3)C(O)C(C)O2)C(O)C(C)O1 (stereo not drawn) [YL-B176],13.9,3.49,178,0.35,75.1,0.35,117,304,0.35,IC50 (TC32 cells; [8]): 13.9 nM; IC50 (TC32 cells; [5]): 13.9 nM; logP (log P; Table 3): 3.49; logP (log P; Table 4): 3.5; IC50 (PC3 [1]; [9]): 178 nM; IC50 (PC3 [1]; [7]): 178 nM
COC(C(=NOCc1[nH]c2ccc(Cl)cc2c1-c1ccccc1)C(O)C(C)O)C1Cc2cc3cc(OC4CC(OC5CC(O)C(O)C(C)O5)C(O)C(C)O4)c(C)c(O)c3c(O)c2C(=O)C1OC1CC(OC2CC(OC3CC(C)(O)C(O)C(C)O3)C(O)C(C)O2)C(O)C(C)O1 (stereo not drawn) [YL-C51],456,4.19,2790,,,0.25,> 1000,,,GI50 PC3 (PC3 [3]): > 1000 nM
COC(C(=NOCCNC(=O)c1[nH]c2ccc(C(F)(F)F)cc2c1-c1ccccc1)C(O)C(C)O)C1Cc2cc3cc(OC4CC(OC5CC(O)C(O)C(C)O5)C(O)C(C)O4)c(C)c(O)c3c(O)c2C(=O)C1OC1CC(OC2CC(OC3CC(C)(O)C(O)C(C)O3)C(O)C(C)O2)C(O)C(C)O1 (stereo not drawn) [YL-C66],,,,0.2,131.5,,,,0.2,log P (log P; Table 3): 3.84; log P (log P; Table 4): 3.8; IC50 (PC3 [1]; Table 3): 283 nM
CO[C@H](C(=NOCCNC(=O)c1[nH]c2ccc(C(F)(F)F)cc2c1-c1ccc(Cl)cc1)[C@@H](O)[C@@H](C)O)[C@@H]1Cc2cc3cc(O[C@H]4C[C@@H](O[C@H]5C[C@@H](O)[C@H](O)[C@@H](C)O5)[C@H](O)[C@@H](C)O4)c(C)c(O)c3c(O)c2C(=O)[C@H]1O[C@H]1C[C@@H](O[C@H]2C[C@@H](O[C@H]3C[C@](C)(O)[C@H](O)[C@@H](C)O3)[C@@H](O)[C@@H](C)O2)[C@H](O)[C@@H](C)O1 [YL-C67],,,,0.167,157.8,,,,0.167,GI50 PC3 (PC3 [3]): > 1000 nM; log P (log P; Table 2): 4.56; log P (log P; Table 3): 4.56; log P (log P; Table 4): 4.6; IC50 (PC3 [1]; Table 3): 1230 nM; CL ([2]; Table 2): 0.167 mL/min/kg
CO[C@H](C(=NOCCNC(=O)c1[nH]c2ccc(C(F)(F)F)cc2c1-c1ccc(F)c(Cl)c1)[C@@H](O)[C@@H](C)O)[C@@H]1Cc2cc3cc(O[C@H]4C[C@@H](O[C@H]5C[C@@H](O)[C@H](O)[C@@H](C)O5)[C@H](O)[C@@H](C)O4)c(C)c(O)c3c(O)c2C(=O)[C@H]1O[C@H]1C[C@@H](O[C@H]2C[C@@H](O[C@H]3C[C@](C)(O)[C@H](O)[C@@H](C)O3)[C@@H](O)[C@@H](C)O2)[C@H](O)[C@@H](C)O1 [YL-C68],,,,,,,,,,GI50 PC3 (PC3 [3]): > 1000 nM; log P (log P; Table 3): 4.54
COC(C(=NOCCCNC(=O)c1[nH]c2ccc(Cl)cc2c1-c1ccc(Cl)cc1)C(O)C(C)O)C1Cc2cc3cc(OC4CC(OC5CC(O)C(O)C(C)O5)C(O)C(C)O4)c(C)c(O)c3c(O)c2C(=O)C1OC1CC(OC2CC(OC3CC(C)(O)C(O)C(C)O3)C(O)C(C)O2)C(O)C(C)O1 (stereo not drawn) [YL-C95],,,,,,,,,,GI50 PC3 (PC3 [3]): > 1000 nM; log P (log P; Table 2): 4.69; CL ([2]; Table 2): 0.433 mL/min/kg
COC(C(=NOCCNC(=O)c1[nH]c2ccc(Cl)cc2c1-c1ccnn1C)C(O)C(C)O)C1Cc2cc3cc(OC4CC(OC5CC(O)C(O)C(C)O5)C(O)C(C)O4)c(C)c(O)c3c(O)c2C(=O)C1OC1CC(OC2CC(OC3CC(C)(O)C(O)C(C)O3)C(O)C(C)O2)C(O)C(C)O1 (stereo not drawn) [YL-C104],5.63,1.77,23,,,0.517,34,133,,
COC(C(=NOCCNC(=O)c1[nH]c2ccc(Cl)cc2c1-c1cccs1)C(O)C(C)O)C1Cc2cc3cc(OC4CC(OC5CC(O)C(O)C(C)O5)C(O)C(C)O4)c(C)c(O)c3c(O)c2C(=O)C1OC1CC(OC2CC(OC3CC(C)(O)C(O)C(C)O3)C(O)C(C)O2)C(O)C(C)O1 (stereo not drawn) [YL-C106],17.2,3.3,202,0.317,83.1,0.317,99,236,0.317,IC50 (TC32 cells; [8]): 17 nM; IC50 (TC32 cells; [5]): 17.2 nM; logP (log P; Table 3): 3.3; logP (log P; Table 4): 3.3; IC50 (PC3 [1]; [9]): 202 nM; IC50 (PC3 [1]; [7]): 202 nM
COc1ccc2[nH]c(C(=O)NCCON=C([C@@H](O)[C@@H](C)O)[C@@H](OC)[C@@H]3Cc4cc5cc(O[C@H]6C[C@@H](O[C@H]7C[C@@H](O)[C@H](O)[C@@H](C)O7)[C@H](O)[C@@H](C)O6)c(C)c(O)c5c(O)c4C(=O)[C@H]3O[C@H]3C[C@@H](O[C@H]4C[C@@H](O[C@H]5C[C@](C)(O)[C@H](O)[C@@H](C)O5)[C@@H](O)[C@@H](C)O4)[C@H](O)[C@@H](C)O3)c(-c3ccc(Cl)cc3)c2c1 [YL-C114],,,,,,,,,,log P (log P; Table 2): 3.58; CL ([2]; Table 2): 0.467 mL/min/kg

# Now from value to compound, other results behind:
IC50 (TC32 cells; [4]) [nM],logP (log P; Table 2),IC50 (PC3 [1]; [6]) [nM],Structure (SMILES),CL ([2]; Table 4) [mL/min/kg],PK Improvement ([2]; Table 4),clearance ([2]; Table 2) [mL/min/kg],GI50 (TC32) [nM],GI50 (PC3 [3]) [nM],CL ([2]; Table 3) [mL/min/kg],also measured
64.3,1.12,214,CO[C@H](C(=NOCCNC(=O)c1ccc2scnc2c1)[C@@H](O)[C@@H](C)O)[C@@H]1Cc2cc3cc(O[C@H]4C[C@@H](O[C@H]5C[C@@H](O)[C@H](O)[C@@H](C)O5)[C@H](O)[C@@H](C)O4)c(C)c(O)c3c(O)c2C(=O)[C@H]1O[C@H]1C[C@@H](O[C@H]2C[C@@H](O[C@H]3C[C@](C)(O)[C@H](O)[C@@H](C)O3)[C@@H](O)[C@@H](C)O2)[C@H](O)[C@@H](C)O1 [YL-C61],,,,,,,
20.2,4.21,515,CO[C@H](C(=NOCCNC(=O)c1[nH]c2ccc(Cl)cc2c1-c1ccc(Cl)cc1)[C@@H](O)[C@@H](C)O)[C@@H]1Cc2cc3cc(O[C@H]4C[C@@H](O[C@H]5C[C@@H](O)[C@H](O)[C@@H](C)O5)[C@H](O)[C@@H](C)O4)c(C)c(O)c3c(O)c2C(=O)[C@H]1O[C@H]1C[C@@H](O[C@H]2C[C@@H](O[C@H]3C[C@](C)(O)[C@H](O)[C@@H](C)O3)[C@@H](O)[C@@H](C)O2)[C@H](O)[C@@H](C)O1 [YL-C82],0.383,68.6,0.383,356,805,0.383,"IC50 (TC32 cells; [5]): 20.2 nM; IC50 (TC32 cells; TC-32, read-out: IC50 TC32, Table 3): 12 nM; logP (log P; Table 3): 4.21; logP (log P; Table 4): 4.2; IC50 (PC3 [1]; [9]): 218 nM; IC50 (PC3 [1]; [7]): 515 nM"
7.4,2.26,43,CO[C@H](C(=NOCCNC(=O)c1[nH]c2ccc(Cl)cc2c1-c1cnn(C)c1)[C@@H](O)[C@@H](C)O)[C@@H]1Cc2cc3cc(O[C@H]4C[C@@H](O[C@H]5C[C@@H](O)[C@H](O)[C@@H](C)O5)[C@H](O)[C@@H](C)O4)c(C)c(O)c3c(O)c2C(=O)[C@H]1O[C@H]1C[C@@H](O[C@H]2C[C@@H](O[C@H]3C[C@](C)(O)[C@H](O)[C@@H](C)O3)[C@@H](O)[C@@H](C)O2)[C@H](O)[C@@H](C)O1 [YL-C102],,,,49,334,,
22.4,3.06,169,CO[C@H](C(=NOCCNC(=O)c1[nH]c2ccc(Cl)cc2c1C1CC1)[C@@H](O)[C@@H](C)O)[C@@H]1Cc2cc3cc(O[C@H]4C[C@@H](O[C@H]5C[C@@H](O)[C@H](O)[C@@H](C)O5)[C@H](O)[C@@H](C)O4)c(C)c(O)c3c(O)c2C(=O)[C@H]1O[C@H]1C[C@@H](O[C@H]2C[C@@H](O[C@H]3C[C@](C)(O)[C@H](O)[C@@H](C)O3)[C@@H](O)[C@@H](C)O2)[C@H](O)[C@@H](C)O1 [YL-C124],,,,,,,
